The values below come from patent publication EP0224249A1, “Amorphous benzimidazole derivatives” (SYNTEX (U.S.A.) INC., priority 1985, dated 1987).

Each structure is given as a SMILES string.

Data set [1] has as its system Trichostrongylus spp. In words: Anthelmintic efficacy in sheep carrying oxfendazole-resistant nematodes. The data set is classed as in vivo. How it is done: (§1) Animals are then subjected to necropsy on day 6 post-treatment. Gastrointestinal tract, lungs, and liver are examined using standard parasitological techniques for nematode and trematode parasites.
(§2) (B) Sheep carrying nematodes with varying degrees of resistance to oxfendazole were treated with either levamisole, oxfendazole, or amorphous oxfendazole in accordance with the above procedure.
(§3) • Ost = Ostertagia spp. • Tri = Trichostrongylus spp. • Nem = Nematodirus spp. • Oes = Oesophagostomum spp. • Tr.o = Trichuris ovis

Data set [2] deals with Ostertagia spp. Described as above. Type of data set: in vivo. How it is done: as §1, §2, §3
For data set [3], the system named is Nematodirus spp. The data set is described as above. Type of data set: in vivo. How it is done: as §1, §2, §3
Data set [4] concerns Oesophagostomum spp. The data set is described as above. Type of data set: in vivo. The procedure: as §1, §2, §3
The subject of data set [5] is Trichuris ovis. Described as above. Type of data set: in vivo. How it is done: as §1, §2, §3
The nature of data set [6]: Dissolution rate at pH 2. Type of data set: physicochemical. The source says:
The dissolution rate of amorphous fenbendazole versus crystalline fenbendazole at pH 2 was studied as a model for showing the bioavailability of the amorphous compound.

Data set [7] deals with Trichostrongylus spp. In words: Anthelmintic efficacy in naturally infected goats, necropsy on day 6 post-treatment. The conditions noted are these: necropsy day 6 post-treatment. Type of data set: in vivo. The procedure: (§4) (A) Fifteen (15) goats, preferably from a single source, known to be infected with nematode parasites as evidenced by positive fecal egg counts are used. The animals would be preferably of one sex. They will have been to be contaminated with goat parasite eggs and larvae, particularly Ostertagia spp. (hereinafter "Ost") and Trichostrongylus spp. (hereinafter "Tri") • 1. - Control • 2. - 9 mg amorphous oxfendazole/kg • 3. - 15 mg oxfendazole/kg Animals are then subjected to necropsy on day 6 post-treatment. Gastrointestinal tract, lungs, and liver are examined using standard parasitological techniques for nematode and trematode parasites.

Data set [8] deals with Ostertagia spp. The description is as above. The conditions noted are these: necropsy day 6 post-treatment. Type of data set: in vivo. The procedure: as §4
Data set [9] has as its system nematode parasites. In words: Overall comparison of the goat and sheep efficacy studies. Type of data set: in vivo. The conditions noted are these: goat and sheep studies together.
Text: (A) Fifteen (15) goats, preferably from a single source, known to be infected with nematode parasites as evidenced by positive fecal egg counts are used. The animals would be preferably of one sex. They will have been to be contaminated with goat parasite eggs and larvae, particularly Ostertagia spp. (hereinafter "Ost") and Trichostrongylus spp. (hereinafter "Tri")
as §1, §2

Data set [10] is described as follows: Blood plasma levels after oral administration to dogs. The data set is classed as in vivo. The conditions noted are these: 10 mg/kg; for Area Under the Curve / Area Under the Curve, mean (n = 6): plasma concentration vs time, 18720 min. The procedure:
Dogs were administered orally either amorphous or crystalline oxfendazole at a dose of 10 mg/kg.
Blood samples were drawn and analyzed before administration and on days 1, 2, 3, 7, 10, and 13 following administration. The area under the curve was calculated for plasma concentration vs time profile.

For data set [11] the following is noted: administered to humans; cited from earlier work.

Turning to `c1ccc([C@H]2CN3CCSC3=N2)cc1` [Levamisole], the “Percent Efficacy Tri” value in data set [1] (8 mg/kg) was 49%. The “Percent Efficacy Ost” value in data set [2] (8 mg/kg) was found to be 98%. Further, the “Percent Efficacy Nem” value in data set [3] (8 mg/kg) is 100%. In data set [4] (8 mg/kg), the “Percent Efficacy Oes” value came to 100%. Further, in data set [5] (8 mg/kg), the “Percent Efficacy Tr. o” value is recorded as 37%.

Turning to `COC(=O)Nc1nc2ccc(Sc3ccccc3)cc2[nH]1` [amorphous fenbendazole, methyl 5-(phenylthio)-lH-benzimidazol-2-yl carbamate], the “% Dissolved” value in data set [6] (pH 2, 5 min) worked out at 73%; in data set [6] (pH 2, 15 min), 91%; in [6] (pH 2, 30 min), 125%; in data set [6] (pH 2, 60 min), 130%; in data set [6] (pH 2, 90 min), 112%. In addition, the “solubility compared with crystalline fenbendazole” value in data set [6] (pH 2, over time) was “more soluble than crystalline fenbendazole and remains more soluble over time”.

Consider `COC(=O)Nc1nc2ccc([S+]([O-])c3ccccc3)cc2[nH]1` (stereo not drawn) [amorphous oxfendazole, methyl 5-(phenylsulfinyl)-lH-benzimidazol-2-yl carbamate], for which the “Percent Efficacy Tri” value came to 98% in data set [7] (9 mg/kg), 100% in data set [1] (3 mg/kg) and 100% in data set [1] (6 mg/kg). Moreover, the “Percent Efficacy Ost” value worked out at 70% in data set [8] (9 mg/kg), 55% in data set [2] (3 mg/kg) and 22% in data set [2] (6 mg/kg). The “Percent Efficacy Nem” value in [3] (3 mg/kg) stood at 57%; in data set [3] (6 mg/kg) it was 82%. Besides, the “Percent Efficacy Oes” value in data set [4] (3 mg/kg) and in [4] (6 mg/kg) was 100% each time. The figures for the “Percent Efficacy Tr. o” value in [5] (3 mg/kg) and in data set [5] (6 mg/kg) were 9.5% and 69%, respectively. Besides, in data set [9], the “dose for approximately equivalent efficacy, relative to that required for oxfendazole” value is “about 60%”. Also, the “Area Under the Curve” value stood at 20465.0 ng/ml hr in [10] (Dog No. A); 9717.5 ng/ml hr in data set [10] (Dog No. B); 11592.5 ng/ml hr in data set [10] (Dog No. C); 24245.0 ng/ml hr in data set [10] (Dog No. D); 12653.8 ng/ml hr in [10] (Dog No. E); 25475.0 ng/ml hr in data set [10] (Dog No. F). In addition, the “plasma level of oxfendazole compared with oxfendazole in commercially available form” value in data set [10] (dogs) is listed as “higher plasma level of oxfendazole”. For the same compound, the “Area Under the Curve, mean (n = 6)” value in data set [10] (dogs) came to 17358.1 ng/ml hr.

Turning to `COC(=O)Nc1nc2cc(Sc3ccccc3)ccc2[nH]1` [crystalline fenbendazole, methyl 5-(phenylthio)-lH-benzimidazol-2-yl carbamate], the “% Dissolved” value amounted to 21% in data set [6] (pH 2, 5 min); 22% in data set [6] (pH 2, 15 min); 46% in [6] (pH 2, 30 min); 41% in data set [6] (pH 2, 60 min); 25% in data set [6] (pH 2, 90 min).

For the compound `COC(=O)Nc1nc2ccc(C(=O)c3ccccc3)cc2[nH]1` [crystalline mebendazole, methyl 5-benzoyl-lH-benzimidazol-2-yl carbamate], the absorbed in data set [11] was 3-4%.

With `COC(=O)Nc1nc2ccc([S+]([O-])c3ccccc3)cc2[nH]1` (stereo not drawn) [oxfendazole, methyl 5-(phenylsulfinyl)-lH-benzimidazol-2-yl carbamate], the figures for the “Percent Efficacy Tri” value in data set [7] (15 mg/kg), in data set [1] (5 mg/kg) and in [1] (10 mg/kg) were 80%, 100% and 99.7%, respectively. Moreover, the “Percent Efficacy Ost” value in data set [8] (15 mg/kg) was 77%; in [2] (5 mg/kg), 0%; in data set [2] (10 mg/kg) it was 28%. Further, the figures for the “Percent Efficacy Nem” value in data set [3] (5 mg/kg) and in data set [3] (10 mg/kg) were 22% and 80%, respectively. The “Percent Efficacy Oes” value in [4] (5 mg/kg) and in data set [4] (10 mg/kg) was 100% in each case. For the same compound, the “Percent Efficacy Tr. o” value in data set [5] (5 mg/kg) is 38%; in [5] (10 mg/kg), 62%. The “Area Under the Curve” value in data set [10] (Dog No. A, listed as Crystalline Ox.) is reported as 2700.0 ng/ml hr; in data set [10] (Dog No. B, listed as Crystalline Ox.) it was 2622.0 ng/ml hr; in [10] (Dog No. C, listed as Crystalline Ox.), 2130.0 ng/ml hr; in data set [10] (Dog No. D, listed as Crystalline Ox.) it was 3341.0 ng/ml hr; in [10] (Dog No. E, listed as Crystalline Ox.), 3107.5 ng/ml hr; in [10] (Dog No. F, listed as Crystalline Ox.) it was 4149.5 ng/ml hr. The “Area Under the Curve, mean (n = 6)” value in [10] (dogs, listed as Crystalline Ox.) is listed as 3008.4 ng/ml hr.
